The text below walks through data of patent publication US20240391862A1, “(1,4,5-TRISUBSTITUTED-1H-PYRAZOL-3-YL)OXY-2-ALKOXY ALKYL ACIDS AND THEIR DERIVATIVES, THEIR SALTS AND THEIR USE AS HERBICIDAL AGENTS” (Bayer AKtiengesellschaft, priority 2021, published 2024).

The structures appear in SMILES notation.

One assay concerns TRZAS. In words: Post-emergence herbicidal effect and crop plant compatibility, greenhouse pot test. Particulars: Triticum aestivum, 504 h, 20 g/ha, one-leaf stage, rated visually after about 3 weeks vs untreated controls, read-out: Post-emergence effect at 20 g/ha against TRZAS in %. Format: in vivo, Triticum aestivum. An excerpt:
• ALOMY: Alopecurus myosuroides SETVI: Setaria viridis • AVEFA: Avena fatua POLCO: Fallopia convolvulus • AMARE: Amaranthus retroflexus ECHCG: Echinochloa crus-galli • LOLRJ: Lolium rigidum STEME: Stellaria media • VERPE: Veronica persica MATIN: Tripleurospermum inodorum • DIGSA: Digitaria sanguinalis ABUTH: Abutylon threophrasti • TRZAS: Triticum aestivum VIOTR: Viola tricolor • BRSNW: Brassica napus ZEAMX: Zea mays • PHBPU: Ipomoea purpurea GLXMA: Glycine max • ORYSA: Oryza sativa HORMU: Hordeum murinum
Seeds of monocotyledonous and dicotyledonous weeds and crop plants are placed in sandy loam in plastic or organic planting pots, covered with soil and cultivated in a greenhouse under controlled growth conditions. 2 to 3 weeks after sowing, the trial plants are treated at the one-leaf stage. The compounds of the invention, formulated in the form of wettable powders (WP) or as emulsion concentrates (EC), are then sprayed onto the green parts of the plants as aqueous suspension or emulsion with addition of 0.5% additive at a water application rate of 600 l/ha (converted). After the test plants have been kept in the greenhouse under optimum growth conditions for about 3 weeks, the activity of the preparations is rated visually in comparison to untreated controls. For example, 100% activity=the plants have died, 0% activity=like control plants.
Tables 20a to 38c below show the effects/crop compatibilities of selected compounds of the general formula (I) on various harmful plants at an application rate corresponding to 20 to 320 g/ha, which were obtained by the trial procedure specified above.

The test system of the next assay is ABUTH. In words: Post-emergence herbicidal effect, greenhouse pot test. It counts as in vivo, Abutilon theophrasti. As to conditions: Abutilon theophrasti, 504 h, visual rating about 3 weeks after treatment, read-out: Post-emergence effect against ABUTH. A digest of the protocol: (§1)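 Greenhouse pot plants in sandy loam receive a one-leaf-stage spray at 20 to 320 g/ha. Activity is assessed visually around 3 weeks afterwards on a 0–100% scale, where 100% means the plants have died.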

Another assay concerns ALOMY. The description is as above. Particulars: Alopecurus myosuroides, 504 h, 320 g/ha, visual rating about 3 weeks after treatment, read-out: Post-emergence effect against ALOMY. It counts as in vivo, Alopecurus myosuroides. A digest of the protocol: as §1
In a further assay the test system is AMARE. The assay is described as above. Format: in vivo, Amaranthus retroflexus. As to conditions: Amaranthus retroflexus, 504 h, visual rating about 3 weeks after treatment, read-out: Post-emergence effect against AMARE. In a few lines: as §1
A further assay concerns AVEFA. The assay is described as above. Format: in vivo, Avena fatua. Particulars: Avena fatua, 504 h, 320 g/ha, visual rating about 3 weeks after treatment, read-out: Post-emergence effect against AVEFA. In a few lines: as §1
The next assay deals with DIGSA. The description is as above. Particulars: Digitaria sanguinalis, 504 h, visual rating about 3 weeks after treatment, read-out: Post-emergence effect against DIGSA. Format: in vivo, Digitaria sanguinalis. In a few lines:
as §1

The next assay concerns ECHCG. The assay is described as above. Format: in vivo, Echinochloa crus-galli. Particulars: Echinochloa crus-galli, 504 h, read-out: Post-emergence effect against ECHCG in %. In a few lines:
as §1

For the next assay, the system named is MATIN. Described as above. Particulars: Tripleurospermum inodorum, 504 h, read-out: Post-emergence effect against MATIN in %. It counts as in vivo, Tripleurospermum inodorum. In a few lines:
as §1

The test system of another assay is PHBPU. The assay is described as above. It counts as in vivo, Ipomoea purpurea. Particulars: Ipomoea purpurea, 504 h, read-out: Post-emergence effect against PHBPU in %. A digest of the protocol: as §1
The next assay deals with POLCO. Described as above. As to conditions: Fallopia convolvulus, 504 h, read-out: Post-emergence effect against POLCO in %. It counts as in vivo, Fallopia convolvulus. A digest of the protocol:
as §1

Another assay has as its system SETVI. Described as above. Particulars: Setaria viridis, 504 h, read-out: Post-emergence effect against SETVI in %. It counts as in vivo, Setaria viridis. In a few lines: as §1
For the next assay, the system named is VERPE. The description is as above. It counts as in vivo, Veronica persica. As to conditions: Veronica persica, 504 h, read-out: Post-emergence effect against VERPE in %. A digest of the protocol:
as §1

The subject of the next assay is VIOTR. The description is as above. Format: in vivo, Viola tricolor. Particulars: Viola tricolor, 504 h, read-out: Post-emergence effect against VIOTR in %. A digest of the protocol: as §1
In the next assay the test system is ZEAMX. In words: Post-emergence herbicidal effect and crop plant compatibility, greenhouse pot test. It counts as in vivo, Zea mays. As to conditions: one-leaf stage, rated visually after about 3 weeks vs untreated controls; for plant injury at 20 g/ha: read-out: Post-emergence effect at 20 g/ha against ZEAMX in %; for plant injury at 80 g/ha: read-out: Post-emergence effect at 80 g/ha against ZEAMX in %. In a few lines: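 Sandy loam pots, greenhouse. One-leaf stage (2–3 wk after sowing) foliar spray; WP/EC in water + 0.5% additive, 600 l/ha; 20–320 g/ha. Visual score ~3 wk, 0–100% vs untreated.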

The subject of the next assay is KCHSC. In words: Post-emergence herbicidal effect, greenhouse pot test. It counts as in vivo. Particulars: 504 h, 320 g/ha, read-out: Post-emergence effect against KCHSC in %. A digest of the protocol: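 Greenhouse plants in sandy loam, sprayed post-emergence at the one-leaf stage (2–3 weeks after sowing) with WP or EC formulations in water plus 0.5% additive at 600 l/ha. Rates 20 to 320 g/ha. Activity rated visually after about 3 weeks against untreated controls (0% like control, 100% dead).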

For `COC(=O)C(OC)Oc1nn(-c2cccc(Cl)c2F)c(-c2cncc(F)c2)c1Cl` (centres unmarked) [Example I-16, Methyl {[4-chloro-1-(3-chloro-2-fluorophenyl)-5-(5-fluoropyridin-3-yl)-1H-pyrazol-3-yl]oxy}(methoxy)acetate], in the assay with TRZAS, the percent crop injury (phytotoxicity) to wheat, post-emergence at 20 g/ha was 10%. In addition, the pest or weed control at 80 g/ha with ABUTH (80 g/ha) turned out to be 90%; in the assay on AMARE (80 g/ha), 80%; in the assay on DIGSA (80 g/ha) it was 80%; in the assay with ECHCG, 90%; with MATIN (80 g/ha), 80%; with PHBPU (80 g/ha), 90%. Also, the pest or weed control at 80 g/ha in the assay with SETVI (80 g/ha) and with VIOTR (80 g/ha) was 80% each time. Further, the pest or weed control at 320 g/ha was determined as 90% with ABUTH; 90% in the assay on ALOMY; 80% in the assay on AMARE; 90% in the assay on AVEFA; 90% in the assay on DIGSA; 90% in the assay on ECHCG. For the same molecule, the pest or weed control at 320 g/ha in the assay with MATIN came out at 90%; in the assay on PHBPU it was 90%; in the assay with POLCO, 80%; with SETVI it was 80%; in the assay on VERPE it was 80%; in the assay on VIOTR, 90%. Moreover, the pest or weed control at 20 g/ha in the assay on PHBPU (20 g/ha) and in the assay on VIOTR (20 g/ha) was 80% each time.
As for `CCOC(=O)C(OC)Oc1nn(-c2ccccc2F)c(-c2ccc(F)nc2)c1Br` (centres unmarked) [Example I-22], in the assay on ZEAMX (Zea mays, 504 h), the plant injury at 20 g/ha was 20%. Moreover, the plant injury at 80 g/ha in the assay with ZEAMX (Zea mays, 504 h) is 20%. The percent crop injury (phytotoxicity) to wheat, post-emergence at 20 g/ha with TRZAS came out at 20%. Moreover, the pest or weed control at 320 g/ha in the assay with ALOMY stood at 90%; in the assay on AMARE, 90%; in the assay with AVEFA, 80%; in the assay on DIGSA, 80%; in the assay on ECHCG it was 90%; in the assay on MATIN it was 90%. Also, the pest or weed control at 320 g/ha with PHBPU came out at 90%; in the assay with SETVI it was 90%; with VERPE, 90%; in the assay on VIOTR it was 80%. Also, in the assay with VERPE (80 g/ha), the pest or weed control at 80 g/ha is 90%.
`COC(Oc1nn(-c2ncccc2F)c(-c2ccc(F)nc2)c1C1CC1)C(=O)O` (centres unmarked) [Example I-56]: in the assay with ZEAMX (320 g/ha), the “Post-emergence effect at 320 g/ha against ZEAMX in %” value worked out at 20%. In the assay with ZEAMX (Zea mays, 504 h), the plant injury at 20 g/ha was found to be 0%. The plant injury at 80 g/ha in the assay on ZEAMX (Zea mays, 504 h) was found to be 0%. Further, the percent crop injury (phytotoxicity) to wheat, post-emergence at 20 g/ha in the assay on TRZAS was 0%. The pest or weed control at 320 g/ha with ABUTH worked out at 80%; in the assay with AVEFA, 80%; in the assay with DIGSA it was 80%; in the assay with ECHCG, 90%; in the assay on PHBPU it was 80%; in the assay on POLCO, 80%. In addition, the pest or weed control at 320 g/ha in the assay with SETVI is 80%; in the assay with VERPE, 80%; in the assay with VIOTR, 90%; in the assay on KCHSC it was 90%. In addition, the pest or weed control at 80 g/ha in the assay on ECHCG came to 80%.
Consider `COC(Oc1nn(-c2ncccc2F)c(-c2ccc(F)nc2)c1C(F)(F)F)C(=O)O` (centres unmarked) [Example I-57], for which the plant injury at 20 g/ha in the assay on ZEAMX (Zea mays, 504 h) is 0%. Besides, in the assay on ZEAMX (Zea mays, 504 h), the plant injury at 80 g/ha worked out at 0%. Further, the plant injury at 320 g/ha in the assay with ZEAMX (Zea mays, 504 h, 320 g/ha, read-out: Post-emergence effect at 320 g/ha against ZEAMX in %) is 0%. In addition, the percent crop injury (phytotoxicity) to wheat, post-emergence at 20 g/ha in the assay on TRZAS came out at 0%. Further, the pest or weed control at 320 g/ha was determined as 80% with AVEFA; 90% in the assay on ECHCG; 80% with PHBPU; 80% with POLCO; 80% with VIOTR; 90% with KCHSC.
As for `COC(Oc1nn(-c2ccccc2F)c(-c2ccc(F)nc2)c1C1CC1)C(=O)O` (centres unmarked) [Example I-69], in the assay on ZEAMX (Zea mays, 504 h), the plant injury at 20 g/ha was found to be 0%. Further, the plant injury at 80 g/ha with ZEAMX (Zea mays, 504 h) came to 0%. For the same molecule, the percent crop injury (phytotoxicity) to wheat, post-emergence at 20 g/ha in the assay on TRZAS was 0%. Further, the pest or weed control at 320 g/ha worked out at 90% in the assay with ABUTH; 90% in the assay on ECHCG; 80% in the assay with MATIN; 80% in the assay on PHBPU; 80% with POLCO; 80% in the assay on VERPE. The pest or weed control at 320 g/ha with VIOTR came out at 90%; in the assay on KCHSC, 80%. In the assay with POLCO (80 g/ha), the pest or weed control at 80 g/ha is 80%.
